Test results reported in patent US11629171B2, “Beta-hairpin peptidomimetics” (POLYPHOR AG, priority 2017, dated 2023).
Values after ≈ are worked out from the molar mass of the structure shown. Where a SMILES comes first, the peptide text is derived from it. Bridges are numbered along the chain shown (N, C = ends). Roman numbers before positions name the chains, in order. [ ]: non-standard residue; d: D form. d(hSer) = N[C@H](CCO)C(=O)O; Hiv = CC(C)[C@H](O)C(=O)O; dDab = NCC[C@@H](N)C(=O)O; Dab = NCC[C@H](N)C(=O)O; Abu = CC[C@H](N)C(=O)O; Dap = NC[C@H](N)C(=O)O

Legend:
male ICR mice = assay: Tolerability in a mouse model (Maximum Tolerated Dose assay); assay type: in vivo; conditions: 2 × 40 mg/kg s.c. at a 12-hr interval, groups of 3
Outline: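 Peptides in 0.9% NaCl (pH 6.5-7.6) given s.c. at 30 or 40 mg/kg, twice 12 h apart, to groups of 3 male ICR mice (23±3 g). Acute toxic signs (mortality, convulsions, tremors, sedation) and autonomic effects (diarrhea, salivation, piloerection) observed for 30 min after each dose.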

[1] = tested on: human red blood cells (hRBC); assay: Hemolysis; assay type: cell-based; conditions: red cells of human, 1 h, 200
Outline: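 Read-out is supernatant absorbance at 540 nm, normalised to full lysis by 2% Triton X-100 and zero lysis by PBS with 10% water. Peptides (200 μg/mL) were exposed to 20% v/v washed human erythrocytes at 37° C for 1 h under shaking.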

[2] = tested on: Klebsiella pneumoniae 968733; assay type: cell-based; conditions: 968733
Outline: (§1)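 CLSI broth microdilution in cation-adjusted Mueller-Hinton II broth with 0.002% polysorbate 80 (final), inoculum appr. 10^6 CFU/mL, peptides in serial two-fold dilutions. MIC (μg/mL) is the lowest concentration without visible growth after 18-20 h at 35° C.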

[3] = tested on: Acinetobacter baumannii DSM 30008; assay type: cell-based; conditions: DSM 30008
Outline: as §1

[4] = tested on: Acinetobacter baumannii 872842; assay type: cell-based; conditions: 872842
Outline: as §1

[5] = tested on: Klebsiella pneumoniae SSI #3010; assay type: cell-based; conditions: SSI #3010
Outline: as §1

Escherichia coli 926415 = assay type: cell-based; conditions: 926415
Outline: as §1

[6] = tested on: Escherichia coli ATCC 25922; assay type: cell-based; conditions: ATCC 25922
Outline: as §1

[7] = tested on: Pseudomonas aeruginosa ATCC 27853; assay type: cell-based; conditions: ATCC 27853
Outline: as §1

[8] = tested on: Enterobacter cloacae 848840; assay type: cell-based; conditions: 848840
Outline: as §1

`CC(C)C[C@@H]1NC(=O)[C@@H](CC(C)C)NC(=O)[C@H](CCN)NC(=O)[C@@H](NC(=O)[C@H](CN)NC(=O)[C@@H](NC(=O)[C@H](CCN)NC(=O)CC[C@@H]2NC(=O)[C@H](CO)NC(=O)[C@H](Cc3ccc(O)cc3)NC(=O)[C@@H](NC(=O)[C@@H](O)C(C)C)CSSC[C@@H](C(=O)N[C@@H](CO)C(N)=O)NC(=O)[C@H](C(C)C)NC(=O)[C@H](CO)NC(=O)[C@H](Cc3c[nH]c4ccccc34)NC(=O)[C@H](CCN)NC(=O)[C@@H](CCN)NC2=O)[C@@H](C)O)CCNC(=O)[C@H]([C@@H](C)O)NC(=O)[C@H](CCN)NC(=O)[C@H](CCN)NC1=O` [Ex. 270] (I: H-[Hiv]CYSE[dDab][Dab]WSVCS-NH2 / II: [Dab]T[Dap][Dab][Dab][dL]L[Dab][Dab]T; disulfide I:2-I:11; amide I:5-II:N; lactam II:4-II:C) was tested, and the Mortality and dose (male ICR mice) was 0/3 died at 2 × 40 mg/kg, the “Hemolysis at 200 μg/mL” value [1] was under 1% and the MIC [2] was 0.125 µg/mL (≈ 0.053 µM). For the same molecule, the MIC [3] was 0.0625 µg/mL (≈ 0.0265 µM), the MIC [4] was 0.0625 µg/mL (≈ 0.0265 µM) and the MIC [5] was 0.0625 µg/mL (≈ 0.0265 µM). It also gave an MIC (Escherichia coli 926415) of 0.125 µg/mL (≈ 0.053 µM), an MIC [6] of 0.0625 µg/mL (≈ 0.0265 µM) and an MIC [7] of 0.125 µg/mL (≈ 0.053 µM). The MIC [8] was 0.25 µg/mL (≈ 0.106 µM).

`CC(=O)N[C@H](C(=O)N[C@H]1CSSC[C@@H](C(=O)N[C@@H](CO)C(N)=O)NC(=O)[C@H](C(C)C)NC(=O)[C@H](CCN)NC(=O)[C@H](Cc2c[nH]c3ccccc23)NC(=O)[C@H](CO)NC(=O)[C@@H](CO)NC(=O)[C@H](CCC(=O)N[C@@H](CCN)C(=O)N[C@H](C(=O)N[C@@H](CN)C(=O)N[C@H]2CCNC(=O)[C@H]([C@@H](C)O)NC(=O)[C@H](CCN)NC(=O)[C@H](CCN)NC(=O)[C@H](CC(C)C)NC(=O)[C@@H](CC(C)C)NC(=O)[C@H](CCN)NC2=O)[C@@H](C)O)NC(=O)[C@H](CCN)NC(=O)[C@H](Cc2ccc(O)cc2)NC1=O)C(C)C` [Ex. 296] (I: Ac-VCY[Dab]E[dS]SW[Dab]VCS-NH2 / II: [Dab]T[Dap][Dab][Dab][dL]L[Dab][Dab]T; disulfide I:2-I:11; amide I:5-II:N; lactam II:4-II:C) was tested, and the Mortality and dose (male ICR mice) was 0/3 died at 2 × 40 mg/kg, the “Hemolysis at 200 μg/mL” value [1] was under 1% and the MIC [2] was 4 µg/mL (≈ 1.67 µM). It also gave an MIC [3] of 0.125 µg/mL (≈ 0.0521 µM), an MIC [4] of 0.25 µg/mL (≈ 0.104 µM) and an MIC [5] of 0.0625 µg/mL (≈ 0.0261 µM). For the same molecule, the MIC (Escherichia coli 926415) was 0.5 µg/mL (≈ 0.208 µM), the MIC [6] was 0.125 µg/mL (≈ 0.0521 µM) and the MIC [7] was 0.25 µg/mL (≈ 0.104 µM). The MIC [8] was 0.5 µg/mL (≈ 0.208 µM).

With `CC(=O)N[C@H](C(=O)N[C@H]1CSSC[C@@H](C(=O)N[C@@H](CO)C(N)=O)NC(=O)[C@H](C(C)C)NC(=O)[C@H](CO)NC(=O)[C@H](Cc2c[nH]c3ccccc23)NC(=O)[C@H](CCN)NC(=O)[C@@H](CO)NC(=O)[C@H](CCC(=O)N[C@@H](CCN)C(=O)N[C@H](C(=O)N[C@@H](CN)C(=O)N[C@H]2CCNC(=O)[C@H]([C@@H](C)O)NC(=O)[C@H](CCN)NC(=O)[C@H](CCN)NC(=O)[C@H](CC(C)C)NC(=O)[C@@H](CC(C)C)NC(=O)[C@H](CCN)NC2=O)[C@@H](C)O)NC(=O)[C@H](CCN)NC(=O)[C@H](Cc2ccc(O)cc2)NC1=O)C(C)C` [Ex. 297] (I: Ac-VCY[Dab]E[dS][Dab]WSVCS-NH2 / II: [Dab]T[Dap][Dab][Dab][dL]L[Dab][Dab]T; disulfide I:2-I:11; amide I:5-II:N; lactam II:4-II:C) the Mortality and dose (male ICR mice) was 0/3 died at 2 × 40 mg/kg, the “Hemolysis at 200 μg/mL” value [1] was under 1% and the MIC [2] was 0.125 µg/mL (≈ 0.0521 µM). The MIC [3] was 0.03125 µg/mL (≈ 0.013 µM), the MIC [4] was 0.0625 µg/mL (≈ 0.0261 µM) and the MIC [5] was 0.0625 µg/mL (≈ 0.0261 µM). For the same molecule, the MIC (Escherichia coli 926415) was 0.125 µg/mL (≈ 0.0521 µM), the MIC [6] was 0.03125 µg/mL (≈ 0.013 µM) and the MIC [7] was 0.125 µg/mL (≈ 0.0521 µM). It also gave an MIC [8] of 0.125 µg/mL (≈ 0.0521 µM).

`CC[C@@H]1NC(=O)[C@@H](CC(C)C)NC(=O)[C@H](CCN)NC(=O)[C@@H](NC(=O)[C@H](CN)NC(=O)[C@@H](NC(=O)[C@H](CCN)NC(=O)CC[C@@H]2NC(=O)CNC(=O)[C@H](Cc3ccc(O)cc3)NC(=O)[C@@H](NC(=O)[C@@H](NC(C)=O)C(C)C)CSSC[C@@H](C(=O)N[C@@H](CO)C(N)=O)NC(=O)[C@H](C(C)C)NC(=O)[C@H](CCN)NC(=O)[C@H](Cc3c[nH]c4ccccc34)NC(=O)[C@H](CCN)NC(=O)[C@@H](CCO)NC2=O)[C@@H](C)O)CCNC(=O)[C@H]([C@@H](C)O)NC(=O)[C@H](CCN)NC(=O)[C@H](CCN)NC1=O` [Ex. 298] (I: Ac-VCYGE[d(hSer)][Dab]W[Dab]VCS-NH2 / II: [Dab]T[Dap][Dab][Dab][dL][Abu][Dab][Dab]T; disulfide I:2-I:11; amide I:5-II:N; lactam II:4-II:C) was tested, and the Mortality and dose (male ICR mice) was 0/3 died at 2 × 40 mg/kg, the “Hemolysis at 200 μg/mL” value [1] was under 1% and the MIC [2] was 1 µg/mL (≈ 0.425 µM). It also gave an MIC [3] of 0.0625 µg/mL (≈ 0.0265 µM), an MIC [4] of 0.25 µg/mL (≈ 0.106 µM) and an MIC [5] of 0.0625 µg/mL (≈ 0.0265 µM). The MIC (Escherichia coli 926415) was 0.5 µg/mL (≈ 0.212 µM), the MIC [6] was 0.03125 µg/mL (≈ 0.0133 µM) and the MIC [7] was 0.25 µg/mL (≈ 0.106 µM). It also gave an MIC [8] of 0.25 µg/mL (≈ 0.106 µM).
